Test results from patent US20230330111A1, “ACTIVE AGENT COMBINATION FOR TREATMENT OF CANCER” (HELMHOLTZ ZENTRUM MÜNCHEN - DEUTSCHES FORSCHUNGSZENTRUM FÜR …, priority 2020, published 2023).
“Also recorded” adds a separate entry of the source.

What was measured:
HCT116 cells [1] = assay: Cell death / ratio of toxicity and viability in HCT116 (monolayer and spheroids); format: cell-based; conditions: for cell death / toxicity (ratio of toxicity and viability): HCT116, 2D or 3D spheroids, NEN 1.2 μM, FCCP 2.5 μM, 2-DG 100 mM, Domp, Imi, Desi, Ami 30 μM, Clomi 20 μM; for attenuation of cell death induced by NEN drug combinations: HCT116 monolayer or spheroids, ISRIB 1 μM or Cyclodextrin in medium
Description: (§1) HCT116, BxPC3 and U87 cell lines were maintained in Dulbecco's modified Eagle's medium (DMEM) (Gibco) supplemented with 10% fetal bovine serum (FBS; Millipore) and Penicilin/Streptomycine (Life Tehnologies), and cultured at 37° C., 5% CO2 and 95 humidity. For spheroid formation, 10000 cells were plated in ultra-low attachment plates (Fisher Scientific), centrifuged at 850 G for 10 min and incubated for 3 days until treatment, with medium change every 3 days.
(§2) To determine drug induced toxicity in spheroid cultures, the Promega CellToXGreen and RealTime-Glo™ MT Cell Viability kits were used according to the manufacturers protocols. Briefly, Toxicity and viability dyes were mixed with cell culture medium and added prior to drug treatment. Fluorescence and luminescence were measured over the course of 3 days on a Thermo Fisher Varioskan Lux plate reader.
(§3) For Caspase 3/7 activity and general cytotoxicity in 2D cell culture the Apo One Homogenous Caspase-3/7 Assay and Multitox Fluor assays were employed respectively, according to the manufacturers protocol. Cells were seeded in 96-wells one day prior to treatment and incubated 24-48 h before assaying.

BxPC3 cells = assay: Cell death / ratio of toxicity and viability in BxPC3 (monolayer); format: cell-based; conditions: for cell death / toxicity (ratio of toxicity and viability): BxPC3, NEN 1.2 μM, FCCP 2.5 μM, 2-DG 100 mM, Domp, Imi, Desi, Ami 30 μM, Clomi 20 μM
Description: as §1, §2, §3

U87 cells = assay: Cell death / ratio of toxicity and viability in U87 (spheroids); format: cell-based; conditions: for cell death / toxicity (ratio of toxicity and viability): U87, NEN 1.2 μM, FCCP 2.5 μM, 2-DG 100 mM, Domp, Imi, Desi, Ami 30 μM, Clomi 20 μM; for attenuation of cell death induced by NEN drug combinations: U87 spheroids, ISRIB 1 μM or Cyclodextrin 0.75%
Description: as §1, §2, §3

HCT116 cells [2] = assay: High-throughput phenotypic screen with NEN co-treatment (FDA-approved and GPCR libraries); format: cell-based; conditions: NEN 1.2 μM, 24 h, FDA-approved drug library and GPCR library
Description: Plate and liquid handling was performed using a HTS platform system composed of a Sciclone G3 Liquid Handler from PerkinElmer (Waltham, MA, USA) with a Mitsubishi robotic arm (Mitsubishi Electric, RV-3511), a MultiFloTM Dispenser (Biotek Instruments, Bad Friedrichshall, Germany) as well as a CytomatTM Incubator (Thermo Fisher Scientific, Waltham, MA, USA). Cell seeding and assays were performed in black 384-well plates (Greiner bio one 384-well μCLEAR®, BLACK, 781091). The plates were coated with poly-D-lysine (Sigma-Aldrich, St. Louis, MA, USA) for 1 h at room temperature to facilitate a better cell adherence. Cells were seeded in 384-well microplates with a cell number of 12,000 cells/well. The signals of the MultiTox-Fluor assays were detected on the EnVision® Multilabel Reader (PerkinElmer, Waltham, MA, USA). The Prestwick Chemical library contains 1,280 small molecule compounds, which are 100% approved drugs (Food and Drug Administration (FDA), European Medicines Agency (EMA) and other agencies). The purity of the compounds was >90% as reported by the provider of the compounds. The GPCR compound library was purchased from MedChem Express (Cat. No.: HY-[…]). The Z' factor was calculated as described by Zhang and colleagues (Zhang, Chung et al., 1999). For screening of the FDA and GPCR small molecule libraries, HCT116 cells were washed with PBS, trypsinized, and resuspended in cell culture medium. The cell suspension (12,000 cells in 50 μl per well) was dispensed into poly-D-lysine pre-coated 384-well plates (Greiner bio one 384-well pCLEAR®, BLACK, 781091) and incubated at 37° C. with 5% CO2. 24 h after seeding, either 5 μl of NEN (negative control), NEN+Nutlin-3a (positive control), or DMSO alone (solvent control) dissolved in cell culture media were dispensed to the assay plate (NEN, final concentration: 1.2 μM; Nutlin-3a, final concentration: 25 μM). In addition, the same day cells were treated either with compound (1 mM stock solution) dissolved in 100% DMSO or DMSO alone. 0.5 μl of compounds/DMSO were transferred to 55 μl cell culture medium per well to keep the final DMSO volume concentration below 1.0%. The cells were then incubated (37° C.; 5% CO2) for 24 h prior to adding 50 μl MultiTox-Fluor Multiplex Cytotoxicity Assay reagent (Promega). Live-cell fluorescence (excitation=400 nm; emission=505 nm) and dead-cell fluorescence (excitation=485 nm; emission=520 nm) were recorded with an EnVision multilabel reader (PerkinElmer, Waltham, USA). The ratio for live/dead was calculated and normalized to the negative/vehicle control. For hit selection a threshold of lower than 3 standard deviations from the median of the negative/vehicle population was set.

ATF4, CHOP and Gadd34 = assay: qPCR of ISR genes; format: cell-based; conditions: HCT116; for ISR marker gene expression (ATF4, CHOP, Gadd34 mRNA): NEN 1.2 μM, Domp and TCAs 30 μM, Clomi 20 μM
Description: RNA was isolated using the Qiagen […] kit following the manufacturers protocol and reverse transcribed using the Quantitect reverse transcription kit (Qiagen). cDNA was amplified using the PowerUp SYBRGreen mastermix (LifeTechnologies), the following primers and an Applied Biosystems Quantstudio 6 cycler. RNA expression data were normalized to the level of beta-actin expression.

UPP1 = UPP1 expression (immunoblot, qPCR) in HCT116; format: cell-based; conditions: ISRIB 1 μM with NEN 1.2 μM + Domperidone 30 μM
Description: Cells were lysed at 4° C. in 100 μl of RIPA buffer (Sigma-Aldrich) containing protease (Roche 11697498001) and phosphatase (Roche 04906837001) inhibitors, and sonicated. Cell extracts were centrifuged 14000×RPM for 5 min 4° C. and the supernatant collected to protein concentration determination with BCA protein assay (Pierce 23225). 10-20 μg of total protein were subjected to SDS-PAGE electrophoresis, and after transfer, membranes were blocked (1 h) and incubated overnight at 4° C. with primary antibodies. After secondary antibody incubation for 1 h at room temperature, signals were visualized by Chemidoc Image System (BioRad) and ImageLab software.
RNA was isolated using the Qiagen RNAesay kit following the manufacturers protocol and reverse transcribed using the Quantitect reverse transcription kit (Qiagen). cDNA was amplified using the PowerUp SYBRGreen mastermix (LifeTechnologies), the following primers and an Applied Biosystems Quantstudio 6 cycler. RNA expression data were normalized to the level of beta-actin expression.

[3] = tested on: glioblastoma and small-cell lung cancer (SCLC); conditions: cited from earlier work
[4] = compared with its analogue Trimipramine; cited from earlier work
[5] = tested on: preclinical tumor rodent models; conditions: single drug; background art; cited from earlier work
HCT116 cells [6] = assay: Caspase 3/7 activity in HCT116; format: cell-based; conditions: HCT116, 1% serum, NEN 1.2 μM, 18 h
Description: For Caspase 3/7 activity and general cytotoxicity in 2D cell culture the Apo One Homogenous Caspase-3/7 Assay and Multitox Fluor assays were employed respectively, according to the manufacturers protocol. […]

B42 organoids = assay: Paclitaxel sensitization in B42 organoids; format: cell-based, human; conditions: triple combination with NEN and TCAs vs Paclitaxel alone
Description: (§4) Primary patient-derived PDAC (Pancreatic ductal adenocarcinoma) three-dimensional (3D) organoids were generated from primary resected human PDAC surgical specimen according to the “Tuveson protocol” described in (Tiriac et al., 2018) and in the methods and extended methods sections of a publication by the group of Hans Clevers (Driehuis et al., 2019). Generation and culturing of primary-dispersed human PDAC cells was performed as recently described (Biederstadt et al., 2020). Written informed consent from the patients for research purposes was obtained prior to the investigation.
as §2
(§5) To investigate the efficacy of targeting the described metabolic stress response in a more heterogeneous cancer cell population, which better reflect the tumor biology, cultures of primary tumor-derived organoids from two patients with pancreatic cancer have been used. Organoids were seeded at a density of 1000 cells per well and let grow for 7 days prior to treatment.

PDO-48 organoids = assay: Paclitaxel sensitization in PDO-48 organoids; format: cell-based, human; conditions: triple combination with NEN and TCAs vs Paclitaxel alone
Description: as §4, §2, §5

Molecule: O=CC[C@@H](O)[C@H](O)[C@H](O)CO [2-DG, 2-deoxyglucose]
- cell death / toxicity (ratio of toxicity and viability) (HCT116 cells [1]): but not 2-DG alone caused significant cell death
- cell death / toxicity (ratio of toxicity and viability) (BxPC3 cells): but not 2-DG alone caused significant cell death
- cell death / toxicity (ratio of toxicity and viability) (U87 cells): but not 2-DG alone caused significant cell death

Molecule: CN(C)CCCN1c2ccccc2CCc2ccc(Cl)cc21 [Clomipramine]
- hit in screen (cell death in NEN co-treated but not vehicle treated cells) (HCT116 cells [2]): represented with several compounds in both screens

Molecule: CNCCCN1c2ccccc2CCc2ccccc21 [Desipramine]
- hit in screen (cell death in NEN co-treated but not vehicle treated cells) (HCT116 cells [2]): represented with several compounds in both screens

Molecule: O=c1[nH]c2ccccc2n1CCCN1CCC(n2c(=O)[nH]c3cc(Cl)ccc32)CC1 [Domperidone]
- ISR marker gene expression (ATF4, CHOP, Gadd34 mRNA) (ATF4, CHOP and Gadd34): modest increase in ISR marker gene expression
- hit in screen (cell death in NEN co-treated but not vehicle treated cells) (HCT116 cells [2]): scored as hit in both screens; also recorded: one of the top hits in both screens

Molecule: N#CC(C#N)=NNc1ccc(OC(F)(F)F)cc1 [FCCP, Carbonyl cyanide-p-trifluoromethoxyphenylhydrazone]
- cell death / toxicity (ratio of toxicity and viability) (HCT116 cells [1]): did not cause significant toxicity
- cell death / toxicity (ratio of toxicity and viability) (BxPC3 cells): did not cause significant toxicity
- cell death / toxicity (ratio of toxicity and viability) (U87 cells): did not cause significant toxicity

Molecule: O=C(COc1ccc(Cl)cc1)NC1CCC(NC(=O)COc2ccc(Cl)cc2)CC1 (centres unmarked) [ISRIB]
- effect on drug-induced CHOP, Gadd34 and ATF4 expression (ATF4, CHOP and Gadd34; ISRIB 1 μM with NEN 1.2 μM + Domperidone 30 μM): prevented the induction of CHOP and of its target gene Gadd34, but did not decrease ATF4 expression significantly
- attenuation of cell death induced by NEN drug combinations (HCT116 cells [1]): attenuated cell death induction
- effect on drug-induced UPP1 upregulation (UPP1): prevented the drug-induced UPP1 upregulation
- attenuation of cell death induced by NEN drug combinations (BxPC3 cells; BxPC3 monolayer, 48 h): attenuated cell death induction
- attenuation of cell death induced by NEN drug combinations (U87 cells): attenuated cell death induction

Molecule: CN(C)CCCN1c2ccccc2CCc2ccccc21 [Imipramine]
- efficacy in preclinical mouse models [3]: proven efficacy against glioblastoma and small-cell lung cancer (SCLC) in preclinical mouse models
- water solubility [4]: higher water solubility

Molecule: NCCO.O=C(Nc1ccc([N+](=O)[O-])cc1Cl)c1cc(Cl)ccc1O [NEN, niclosamide ethanolamine]
- anti-tumor efficacy [5]: anti-tumor efficacy in a variety of preclinical tumor rodent models
- ISR marker gene expression (ATF4, CHOP, Gadd34 mRNA) (ATF4, CHOP and Gadd34): modest increase in ISR marker gene expression
- cell death / toxicity (ratio of toxicity and viability) (HCT116 cells [1]): did not cause significant toxicity
- cell death / toxicity (ratio of toxicity and viability) (BxPC3 cells): did not cause significant toxicity
- cell death (caspase activity) under low serum (HCT116 cells [6]): caused significant cell death
- cell death / toxicity (ratio of toxicity and viability) (U87 cells): did not cause significant toxicity

Molecule: CC(=O)O[C@H]1C(=O)[C@@]2(C)[C@H]([C@H](OC(=O)c3ccccc3)[C@]3(O)C[C@H](OC(=O)[C@H](O)[C@@H](NC(=O)c4ccccc4)c4ccccc4)C(C)=C1C3(C)C)[C@]1(OC(C)=O)CO[C@@H]1C[C@@H]2O [Paclitaxel]
- increase in effectiveness in inducing organoid cell death (B42 organoids): up to 100 times
- increase in effectiveness in inducing organoid cell death (PDO-48 organoids): approximately ten

Molecule: CC(CN(C)C)CN1c2ccccc2CCc2ccccc21 (centres unmarked) [Trimipramine]
- hit in screen (cell death in NEN co-treated but not vehicle treated cells) (HCT116 cells [2]): represented with several compounds in both screens

Molecule: O=C(Nc1ccc([N+](=O)[O-])cc1Cl)c1cc(Cl)ccc1O [niclosamide]
- anti-tumor efficacy [5]: anti-tumor efficacy in a variety of preclinical tumor rodent models; also recorded: only minor therapeutic efficacy

Molecule: Cyclodextrin [CD]
- attenuation of cell death induced by NEN drug combinations (HCT116 cells [1]): CD concentration-dependent suppression of cell death
- attenuation of cell death induced by NEN drug combinations (U87 cells): partially prevented cell death induction
